Data reported in patent US20130102631A1, “NOVEL MICROBIOCIDAL DIOXIME ETHER DERIVATIVES” (SYNGENTA CROP PROTECTION LLC, priority 2010, published 2013).

Key:
[1] = tested on: Monographella nivalis (Microdochium nivale); assay: Monographella nivalis (Microdochium nivale) / liquid culture (foot rot cereals); type: cell-based; conditions: at ≦200 ppm, liquid culture PDB, inhibition of growth photometrically 4-5 days after application, read-out: control of Monographella nivalis
Description: Monographella nivalis (Microdochium nivale)/Liquid Culture (Foot Rot Cereals): Conidia of the fungus from cryogenic storage were directly mixed into nutrient broth (PDB potato dextrose broth). After placing a DMSO solution of test compound into a 96-well microtiter plate, the nutrient broth containing the fungal spores was added. The test plates were incubated at 24° C. and the inhibition of growth was determined photometrically 4-5 days after application. […].57; 2.513; 2.559; 2.558; 2.556; 2.555; 2.374; 2.553; 2.551 (fraction B); 2.551 (fraction A); 2.548; 2.544; 2.542; 2.541; 2.539; 2.536; 2.535; 2.533; 2.530; 2.528; 2.526; 2.525 (fraction B); 2.525 (fraction A); 2.524; 2.519; 2.518; 2.516; 2.514; E/E-5.167; 2.512; 2.514

[2] = tested on: Mycosphaerella arachidis (Cercospora arachidicola); assay: Mycosphaerella arachidis (Cercospora arachidicola) / liquid culture (early leaf spot); type: cell-based; conditions: at ≦200 ppm, liquid culture PDB, inhibition of growth photometrically 4-5 days after application, read-out: control of Mycosphaerella arachidis
Description: Mycosphaerella arachidis (Cercospora arachidicola)/Liquid Culture (Early Leaf Spot): Conidia of the fungus from cryogenic storage were directly mixed into nutrient broth (PDB potato dextrose broth). After placing a DMSO solution of test compound into a 96-well microtiter plate, the nutrient broth containing the fungal spores was added. The test plates are incubated at 24° C. and the inhibition of growth was determined photometrically 4-5 days after application. […]-2.509; 5.561; 2.561; P.57; 2.513; 2.559; 2.558; 2.557; 2.556; 2.555; 2.374; 2.553; 2.552; 2.551 (fraction B); 2.551 (fraction A); 2.544; 2.541; 2.539; 2.537; 2.536; 2.533; 2.532; 2.531; 2.530; 2.528; 2.526; 2.525 (fraction B); 2.525 (fraction A); 2.524; 2.520; 2.519; 2.510; 2.518; 2.517; 2.516; 2.514; […].002; 2.512; 2.511; 2.514

[3] = tested on: Mycosphaerella graminicola (Septoria tritici); assay: Mycosphaerella graminicola (Septoria tritici) / liquid culture (Septoria blotch); type: cell-based; conditions: Zymoseptoria tritici; at ≦200 ppm, liquid culture PDB, inhibition of growth photometrically 4-5 days after application; read-out: control of Mycosphaerella graminicola
[4] = tested on: Puccinia recondita f. sp. tritici; assay: Puccinia recondita f. sp. tritici / wheat / leaf disc preventative (brown rust); type: in vivo; conditions: foliar, wheat leaf segments cv Kanzler, inoculated 1 day after application, assessed 7-9 days after application
Description: Puccinia recondita f. sp. Tritici/Wheat/Leaf Disc Preventative (Brown Rust): Wheat leaf segments cultivated variety (cv) Kanzler were placed on agar in 24-well plates and sprayed with formulated test compound diluted in water at an application rate of 200 ppm. The leaf disks were inoculated with a spore suspension of the fungus 1 day after application. The inoculated leaf segments were incubated at 19° C. and 75% relative humidity under a light regime of 12/12 h (light/dark) in a climate cabinet and the activity of a compound was assessed as percent disease control compared to untreated when an appropriate level of disease damage appears in untreated check leaf segments (7-9 days after application). […]-2.508; 5.561; 2.561; 2.513; 2.559; 2.556; 2.555; 2.374; 2.544; 2.537; 2.530; 2.525 (fraction B); 2.519; 2.516; 2.514; E/E-5.167; E/E-3.002; 2.512; E/E-2.507

[5] = tested on: Gaeumannomyces graminis; assay: Gaeumannomyces graminis / liquid culture (take-all of cereals); type: cell-based; conditions: at ≦200 ppm, liquid culture PDB, inhibition of growth photometrically 4-5 days after application, read-out: control of Gaeumannomyces graminis
Description: Gaeumannomyces graminis/Liquid Culture (Take-All of Cereals): Mycelial fragments of the fungus from cryogenic storage were directly mixed into nutrient broth (PDB potato dextrose broth). After placing a DMSO solution of test compound into a 96-well microtiter plate, the nutrient broth containing the fungal spores is added. The test plates were incubated at 24° C. and the inhibition of growth was determined photometrically 4-5 days after application. […]-2.509; 5.561; 2.561; P.57; 2.513; 2.559; 2.558; 2.557; 2.556; 2.555; 2.374; 2.553; 2.552; 2.551 (fraction B); 2.551 (fraction A); 2.539; 2.533; 2.528; 2.526; 2.525 (fraction B); 2.525 (fraction A); 2.524; 2.523; 2.521; 2.520; 2.519; 2.510; 2.518; 2.516; 2.514; E/E-5.167; E/E-3.002; 2.512; E/E-2.508

[6] = tested on: Glomerella lagenarium; assay: Glomerella lagenarium (Colletotrichum lagenarium) / liquid culture (anthracnose); type: cell-based; conditions: Colletotrichum orbiculare; at ≦200 ppm, liquid culture PDB, inhibition of growth photometrically 3-4 days after application; read-out: control of Glomerella lagenarium
Description: Glomerella lagenarium (Colletotfichum lagenarium)/Liquid Culture (Anthracnose): Conidia of the fungus from cryogenic storage were directly mixed into nutrient broth (PDB potato dextrose broth). After placing a DMSO solution of test compound into a 96-well microtiter, the nutrient broth containing the fungal spores was added. The test plates were incubated at 24° C. and the inhibition of growth is measured photometrically 3-4 days after application. […]-2.509; 5.561; 2.561; E/E-2.208; P.57; 2.513; 2.559; 2.556; 2.555; 2.374; 2.552; 2.548; 2.544; 2.541; 2.540; 2.539; 2.537; 2.536; 2.533; 2.531; 2.530; 2.528; 2.526; 2.519; 2.510; 2.516; 2.514; E/E-5.167; E/E-3.002; 2.512; 2.514; Z/E-2.474

[7] = tested on: Pyrenophora teres; assay: Pyrenophora teres / barley / leaf disc preventative (net blotch); type: in vivo; conditions: foliar, barley leaf segments cv Hasso, inoculated two days after application, assessed 5-7 days after application
Description: Pyrenophora teres/Barley/Leaf Disc Preventative (Net Blotch): Barley leaf segments cv Hasso are placed on agar in a 24-well plate and sprayed with formulated test compound diluted in water at an application rate of 200 ppm. The leaf segments are inoculated with a spore suspension of the fungus two days after application of the test solution. The inoculated leaf segments are incubated at 20° C. and 65% relative humidity under a light regime of 12/12 h (light/dark) in a climate cabinet and the activity of a compound is assessed as disease control compared to untreated when an appropriate level of disease damage appears in untreated check leaf segments (5-7 days after application). […]-2.507; 5.561; 2.561; E/E-2.208; P.57; 2.513; 2.559; 2.558; 2.556; 2.555; 2.374; 2.552; 2.544; 2.537; 2.533; 2.530; 2.528; 2.519; 2.510; 2.516; 2.514; E/E-5.167; E/E-3.002; 2.512

[8] = tested on: Blumeria graminis f. sp. tritici (Erysiphe graminis f. sp. tritici); assay: Blumeria graminis f. sp. tritici / wheat / leaf disc preventative (powdery mildew on wheat); type: in vivo; conditions: foliar, wheat leaf segments cv. Kanzler, inoculated 1 day after application, assessed 6-8 days after application
Description: Blumeria graminis f. sp. tritici (Erysiphe graminis f. sp. tritici)/Wheat/Leaf Disc Preventative (Powdery Mildew on Wheat):
Wheat leaf segments cv. Kanzler were placed on agar in a 24-well plate and sprayed with the formulated test compound diluted in water at an application rate of 200 ppm. The leaf disks were inoculated by shaking powdery mildew infected plants above the test plates 1 day after application. The inoculated leaf disks were incubated at 20° C. and 60% relative humidity under a light regime of 24 h darkness followed by 12 h/12 h (dark/light) in a climate chamber and the activity of a compound was assessed as percent disease control compared to untreated when an appropriate level of disease damage appears on untreated check leaf segments (6-8 days after application). The following compounds gave at least 80% control of Blumeria graminis: E/E-2.168, E/E-2.474, E/E-2.002; 5.561; 2.561; E/E-2.208; 2.513; 2.559; 2.557; 2.556; 2.555; 2.374; 2.552; 2.537; 2.533; 2.530; 2.528; 2.526; 2.519; 2.510; 2.516; 2.514; E/E-5.167; E/E-3.002; 2.512; 2.511

[9] = tested on: Phaeosphaeria nodorum (Septoria nodorum); assay: Phaeosphaeria nodorum (Septoria nodorum) / wheat / leaf disc preventative (glume blotch); type: in vivo; conditions: Parastagonospora nodorum, foliar, wheat leaf segments cv Kanzler, inoculated 2 days after application, assessed 5-7 days after application
Description: Phaeosphaeria nodorum (Septoria nodorum)/Wheat/Leaf Disc Preventative (Glume Blotch): Wheat leaf segments cv Kanzler were placed on agar in a 24-well plate and sprayed with formulated test compound diluted in water at an application rate of 200 ppm. The leaf disks are inoculated with a spore suspension of the fungus 2 days after application. The inoculated test leaf disks are incubated at 20° C. and 75% relative humidity under a light regime of 12/12 h (light/dark) in a climate cabinet and the activity of a compound is assessed as percent disease control compared to untreated when an appropriate level of disease damage appears in untreated check leaf disks (5-7 days after application). […]-2.508; 5.561; 2.561; E/E-2.208; P.57; 2.513; 2.559; 2.558; 2.557; 2.556; 2.555; 2.374; 2.544; 2.541; 2.539; 2.537; 2.536; 2.535; 2.533; 2.530; 2.526; 2.519; 2.510; 2.516; 2.514; E/E-5.167; E/E-3.002; 2.512

[10] = tested on: Puccinia recondita f. sp. tritici; assay: Puccinia recondita f. sp. tritici / wheat / leaf disc curative (brown rust); type: in vivo; conditions: foliar, wheat leaf segments cv Kanzler, 200 ppm applied 1 day after inoculation, assessed 6-8 days after application
Description: Puccinia recondita f. sp. tritici/Wheat/Leaf Disc Curative (Brown Rust): Wheat leaf segments cv Kanzler were placed on agar in 24-well plates. The leaf segments were inoculated with a spore suspension of the fungus. The plates were stored in darkness at 19° C. and 75% relative humidity. The formulated test compound diluted in water was applied at an application rate of 200 ppm 1 day after inoculation. […]-2.508; 5.561; 2.561; E/E-2.208; 2.513; 2.559; 2.556; 2.555; 2.374; 2.552; 2.537; 2.519; 2.516; 2.514; […].002; 2.512; E/E-2.507

CC/C(=N/OCC(C)(C)CO/N=C1\CCCc2ccc(C)nc21)c1ncc(Cl)cc1F (single isomer, unassigned) [2.525 (fraction B)]
≥ 80%: inhibition of growth at up to 200 µg/mL [1] | inhibition of growth at up to 200 µg/mL [2] | inhibition of growth at up to 200 µg/mL [3] | pest or weed control at 200 ppm [4] | inhibition of growth at up to 200 µg/mL [5]

Cc1ccc2c(n1)/C(=N/OCC(C)(C)CO/N=C(\c1ccccc1)c1ccccn1)CCC2 [Compound 2.510]
≥ 80%: inhibition of growth at up to 200 µg/mL [6] | inhibition of growth at up to 200 µg/mL [2] | inhibition of growth at up to 200 µg/mL [3] | pest or weed control at 200 ppm [7] | pest or weed control at 200 ppm [8] | pest or weed control at 200 ppm [9] | inhibition of growth at up to 200 µg/mL [5]

Cc1ccc2c(n1)/C(=N/OCC(C)(C)CON=C(c1ccccn1)c1ccccn1)CCC2 [Compound 2.511]
≥ 80%: inhibition of growth at up to 200 µg/mL [2] | pest or weed control at 200 ppm [8]

Cc1ccc2c(n1)/C(=N/OCC(C)(C)CO/N=C/c1cccc(CO)n1)CCC2 [Compound 2.528]
≥ 80%: inhibition of growth at up to 200 µg/mL [1] | inhibition of growth at up to 200 µg/mL [6] | inhibition of growth at up to 200 µg/mL [2] | inhibition of growth at up to 200 µg/mL [3] | pest or weed control at 200 ppm [7] | pest or weed control at 200 ppm [8] | inhibition of growth at up to 200 µg/mL [5]

C/C(=N\OCC(C)(C)CO/N=C1\CCCc2ccc(C)nc21)c1cccc(-c2ccccc2Cl)n1 [Compound 2.544]
≥ 80%: inhibition of growth at up to 200 µg/mL [1] | inhibition of growth at up to 200 µg/mL [6] | inhibition of growth at up to 200 µg/mL [2] | inhibition of growth at up to 200 µg/mL [3] | pest or weed control at 200 ppm [4] | pest or weed control at 200 ppm [7] | pest or weed control at 200 ppm [9]

Cc1cc(C)nc(C(=NOCCCO/N=C2\CCCc3ccc(C)nc32)c2cc(C)cc(C)n2)c1 [Compound 2.557]
≥ 80%: inhibition of growth at up to 200 µg/mL [2] | pest or weed control at 200 ppm [8] | pest or weed control at 200 ppm [9] | inhibition of growth at up to 200 µg/mL [5]

C/C(=N\OCC(C)(O)CO/N=C1\CCCc2ccc(C)nc21)c1cccc(C)n1 (stereo not shown) [E/E-14.002]
≥ 80%: inhibition of growth at up to 200 µg/mL [2] | pest or weed control at 200 ppm [10]
